Source: PubChem BioAssay AID588709 (The Scripps Research Institute Molecular Screening Center, 2011)
“And” between values parts separate entries of the source, which are not always exact repeats. Identical values can stand only once. The source made the active and inactive calls. How the calls were made is not given here.

Test system: HEK293 cytotoxicity, ATP luminescence
Experiment: HEK cell viability loss – luminescence, HEK cells, counter-screen for IDE inhibitor project, dose response (AID 588709)

Compound	IC50
O=C(Nc1ccc2oc(-c3cccnc3)nc2c1)c1ccc2c(c1)OCCO2	> 71.5 µM (inactive)
O=C(C1CC1)N1CCN(c2ccnc3cc(Cl)ccc23)CC1	> 71.5 µM (inactive)
Nc1c(C(=O)Nc2nccs2)sc2nc(-c3cccs3)cc(C(F)(F)F)c12	9.06 µM
O=C(Nc1cc(C(F)(F)F)cc(C(F)(F)F)c1)c1csc(-c2ccncc2)n1	> 71.5 µM (inactive)
Clc1cccc(-c2nnc(SCc3nc4ccccc4[nH]3)n2-c2ccccc2)c1	31.2 µM (inactive)
COc1ccc(-c2nc(C(=O)Nc3cccc(C(F)(F)F)c3)cs2)cc1	67.8 µM (inactive)
O=C(Nc1cccc(C(F)(F)F)c1)c1csc(Cc2cccc(C(F)(F)F)c2)n1	29.5 µM (inactive)
COc1ccc(C(=O)N2CCN(C(=O)C3COc4ccccc4O3)CC2)cc1OC (stereo unspecified)	> 71.5 µM (inactive)
O=C(Nc1cccc(C(F)(F)F)c1)c1csc(-c2cccc(C(F)(F)F)c2)n1	55.9 µM (inactive)
Clc1cccc(-c2nnc(SCc3nc4ccccc4[nH]3)n2Cc2ccco2)c1	23.3 µM (inactive)
Cc1ccc(-c2nc(C(=O)Nc3cccc(C(F)(F)F)c3)cs2)cc1	36.1 µM (inactive)
CC(Sc1nnc(-c2cccnc2)n1-c1ccccc1F)C(=O)N1CCCc2ccccc21 (stereo unspecified)	32.1 µM (inactive)
COc1cccc(-c2nnc(SCc3nc4ccccc4[nH]3)n2Cc2ccco2)c1	36.5 µM (inactive)
Cc1cccc(-c2nnc(SCc3nc4ccccc4[nH]3)n2Cc2ccco2)c1	34.8 µM (inactive) and 32.7 µM (inactive)
Cc1ccc(C)c(N2C(=N)S/C(=C\c3ccc(-c4ccccc4C(=O)O)o3)C2=O)c1	> 71.5 µM (inactive)
Cn1c(=O)c(C(=O)CN2CCCc3ccccc32)c(N)n(Cc2ccccc2)c1=O	30.1 µM (inactive)

Compound	IC50
O=C(Nc1cccc(C(F)(F)F)c1)c1csc(-c2ccccc2)n1	33.3 µM (inactive)
Cn1c(SCc2nc3ccccc3[nH]2)nnc1-c1cccc(Cl)c1	> 71.5 µM (inactive)
O=C(CSc1nnc(-c2cccc(Cl)c2)n1Cc1ccco1)Nc1ccc2cn[nH]c2c1	> 71.5 µM (inactive)
Cc1c(CCC(=O)NCCCn2ccnc2)c(=O)oc2cc3oc4c(c3cc12)CCCC4	21.4 µM (inactive)
CCN(CC)c1ccc(/C=C2\C(=N)N3N=C(CC(=O)N4CCOCC4)SC3=NC2=O)cc1	> 71.5 µM (inactive)
O=C(CSc1nnc(-c2cccc(Cl)c2)n1Cc1ccco1)c1ccc2ccccc2c1	30.7 µM (inactive)
O=c1c2ccccc2sn1-c1cc(S(=O)(=O)N2CCOCC2)ccc1N1CCOCC1	9.61 µM
COc1ccc(NC(=O)CSc2nnc(CN3CCOCC3)n2C)cc1Cl	> 71.5 µM (inactive)
COc1cc(/C=C2\SC(=S)N(NC(C)=O)C2=O)ccc1OC(=O)c1ccco1	> 71.5 µM (inactive)
O=C(Nc1cccc(C(F)(F)F)c1)c1csc(-c2ccncc2)n1	24.1 µM (inactive)
Cc1ccc(NC(=O)CSc2nnc(-c3cccc(Cl)c3)n2Cc2ccco2)c(C)c1	35.6 µM (inactive)
Cc1nc(-c2cccnc2)sc1C(=O)Nc1cccc(C(F)(F)F)c1	15.8 µM (inactive)
O=C(CSc1nnc(-c2cccc(Cl)c2)n1Cc1ccco1)Nc1ccc2c(c1)OCCO2	29.7 µM (inactive)
O=C(CSc1nnc(-c2cccc(Cl)c2)n1Cc1ccco1)Nc1ccccc1C(F)(F)F	30.9 µM (inactive)
CCOc1ccc2[nH]c3c(N4CCN(C(=O)c5ccco5)CC4)ncnc3c2c1	21.1 µM (inactive)
